Measurements published in PubChem BioAssay (NCI).
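Briefly, cells in 96-well plates were exposed to five compound concentrations for 48 h, and endpoints were estimated by linear interpolation. GI50 marks 50% less growth. TGI: concentration producing complete growth inhibition.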

What was measured:
Assay in all cases: NCI anticancer screen, dose series, 48 h
M14 melanoma = system: M14 melanoma
HL-60(TB) leukemia = system: HL-60(TB) leukemia
SF-268 CNS = system: SF-268 CNS
HOP-62 NSCLC = system: HOP-62 NSCLC
KM12 colon = system: KM12 colon
OVCAR-8 ovarian = system: OVCAR-8 ovarian
COLO 205 colon = system: COLO 205 colon
SK-OV-3 ovarian = system: SK-OV-3 ovarian
OVCAR-5 ovarian = system: OVCAR-5 ovarian
UO-31 renal = system: UO-31 renal
OVCAR-4 ovarian = system: OVCAR-4 ovarian
U251 CNS = system: U251 CNS
IGROV1 ovarian = system: IGROV1 ovarian
EKVX NSCLC = system: EKVX NSCLC
UACC-62 melanoma = system: UACC-62 melanoma
SN12C renal = system: SN12C renal
UACC-257 melanoma = system: UACC-257 melanoma
RPMI-8226 leukemia = system: RPMI-8226 leukemia
MALME-3M melanoma = system: MALME-3M melanoma
SK-MEL-28 melanoma = system: SK-MEL-28 melanoma
RXF 393 renal = system: RXF 393 renal
MCF7 breast = system: MCF7 breast
NCI/ADR-RES ovarian = system: NCI/ADR-RES ovarian
SK-MEL-5 melanoma = system: SK-MEL-5 melanoma
SK-MEL-2 melanoma = system: SK-MEL-2 melanoma
NCI-H460 lung = system: NCI-H460 lung
T-47D breast = system: T-47D breast
SNB-19 CNS = system: SNB-19 CNS
786-0 renal = system: 786-0 renal
ACHN renal = system: ACHN renal
MOLT-4 leukemia = system: MOLT-4 leukemia
HCC-2998 colon = system: HCC-2998 colon
PC-3 prostate = system: PC-3 prostate
MDA-MB-231 breast = system: MDA-MB-231 breast
SNB-75 CNS = system: SNB-75 CNS
TK-10 renal = system: TK-10 renal
MDA-MB-435 = system: MDA-MB-435
HS 578T breast = system: HS 578T breast
K-562 leukemia = system: K-562 leukemia
HCT-15 colon = system: HCT-15 colon
SF-295 CNS = system: SF-295 CNS
CCRF-CEM leukemia = system: CCRF-CEM leukemia
HOP-92 NSCLC = system: HOP-92 NSCLC
SW-620 colon = system: SW-620 colon
A549 NSCLC = system: A549 NSCLC
HT29 colon = system: HT29 colon
A498 renal = system: A498 renal
LOX IMVI melanoma = system: LOX IMVI melanoma
HCT-116 colon = system: HCT-116 colon
BT-549 breast = system: BT-549 breast
OVCAR-3 ovarian = system: OVCAR-3 ovarian
NCI-H226 lung = system: NCI-H226 lung
DU-145 prostate = system: DU-145 prostate
CAKI-1 renal = system: CAKI-1 renal
SF-539 CNS = system: SF-539 CNS
NCI-H23 lung = system: NCI-H23 lung
NCI-H522 lung = system: NCI-H522 lung
SR leukemia = system: SR leukemia

For O=C(NNc1nc2cc(F)ccc2n2cccc12)c1ccncn1, the GI50 (M14 melanoma) was 255 nM, the TGI (M14 melanoma) was > 11000 nM and the GI50 (HL-60(TB) leukemia) was 293 nM. For the same molecule, the GI50 (SF-268 CNS) was 234 nM, the TGI (SF-268 CNS) was > 30000 nM and the GI50 (HOP-62 NSCLC) was 94.1 nM. The TGI (HOP-62 NSCLC) was 9120 nM, the GI50 (KM12 colon) was 278 nM and the TGI (KM12 colon) was > 22500 nM. For the same molecule, the GI50 (OVCAR-8 ovarian) was 277 nM, the TGI (OVCAR-8 ovarian) was > 28400 nM and the GI50 (COLO 205 colon) was 272 nM. The TGI (COLO 205 colon) was > 13500 nM, the GI50 (SK-OV-3 ovarian) was 363 nM and the TGI (SK-OV-3 ovarian) was 14000 nM. The GI50 (OVCAR-5 ovarian) was 1300 nM, the TGI (OVCAR-5 ovarian) was > 30000 nM and the GI50 (UO-31 renal) was 85.6 nM. For the same molecule, the TGI (UO-31 renal) was 4180 nM, the GI50 (OVCAR-4 ovarian) was 162 nM and the TGI (OVCAR-4 ovarian) was > 8250 nM. For the same molecule, the GI50 (U251 CNS) was 163 nM, the TGI (U251 CNS) was > 30000 nM and the GI50 (IGROV1 ovarian) was 211 nM. For the same molecule, the TGI (IGROV1 ovarian) was > 30000 nM, the GI50 (EKVX NSCLC) was 234 nM and the TGI (EKVX NSCLC) was > 16100 nM. It also gave a GI50 (UACC-62 melanoma) of 255 nM, a TGI (UACC-62 melanoma) of 2490 nM and a GI50 (SN12C renal) of 564 nM. For the same molecule, the TGI (SN12C renal) was > 30000 nM, the GI50 (UACC-257 melanoma) was 712 nM and the TGI (UACC-257 melanoma) was 8250 nM. It also gave a GI50 (RPMI-8226 leukemia) of 242 nM, a TGI (RPMI-8226 leukemia) of 2300 nM and a GI50 (MALME-3M melanoma) of 910 nM. For the same molecule, the TGI (MALME-3M melanoma) was > 21200 nM, the GI50 (SK-MEL-28 melanoma) was 567 nM and the TGI (SK-MEL-28 melanoma) was > 30000 nM. It also gave a GI50 (RXF 393 renal) of 612 nM, a TGI (RXF 393 renal) of 3070 nM and a GI50 (MCF7 breast) of 270 nM. For the same molecule, the TGI (MCF7 breast) was > 15300 nM, the GI50 (NCI/ADR-RES ovarian) was 242 nM and the TGI (NCI/ADR-RES ovarian) was 9350 nM. It also gave a GI50 (SK-MEL-5 melanoma) of 398 nM, a TGI (SK-MEL-5 melanoma) of 5410 nM and a GI50 (SK-MEL-2 melanoma) of 1130 nM. For the same molecule, the TGI (SK-MEL-2 melanoma) was > 17000 nM, the GI50 (NCI-H460 lung) was 76.4 nM and the TGI (NCI-H460 lung) was > 7440 nM. The GI50 (T-47D breast) was 301 nM, the TGI (T-47D breast) was > 18300 nM and the GI50 (SNB-19 CNS) was 396 nM. The TGI (SNB-19 CNS) was > 30000 nM, the GI50 (786-0 renal) was 412 nM and the TGI (786-0 renal) was > 15700 nM. The GI50 (ACHN renal) was 179 nM, the TGI (ACHN renal) was > 30000 nM and the GI50 (MOLT-4 leukemia) was 109 nM. The GI50 (HCC-2998 colon) was 738 nM, the TGI (HCC-2998 colon) was > 23100 nM and the GI50 (PC-3 prostate) was 183 nM. For the same molecule, the TGI (PC-3 prostate) was 13600 nM, the GI50 (MDA-MB-231 breast) was 766 nM and the TGI (MDA-MB-231 breast) was > 30000 nM. For the same molecule, the GI50 (SNB-75 CNS) was 316 nM, the TGI (SNB-75 CNS) was > 25800 nM and the GI50 (TK-10 renal) was 361 nM. For the same molecule, the TGI (TK-10 renal) was > 19000 nM, the GI50 (MDA-MB-435) was 1170 nM and the TGI (MDA-MB-435) was > 30000 nM. The GI50 (HS 578T breast) was 1810 nM, the TGI (HS 578T breast) was > 24900 nM and the GI50 (K-562 leukemia) was 176 nM. For the same molecule, the TGI (K-562 leukemia) was > 9890 nM, the GI50 (HCT-15 colon) was 70.4 nM and the TGI (HCT-15 colon) was > 20200 nM. For the same molecule, the GI50 (SF-295 CNS) was 105 nM, the TGI (SF-295 CNS) was 6750 nM and the GI50 (CCRF-CEM leukemia) was 32.7 nM. The TGI (CCRF-CEM leukemia) was 428 nM, the GI50 (HOP-92 NSCLC) was 287 nM and the TGI (HOP-92 NSCLC) was 11700 nM. For the same molecule, the GI50 (SW-620 colon) was 284 nM, the TGI (SW-620 colon) was > 24100 nM and the GI50 (A549 NSCLC) was 253 nM. For the same molecule, the TGI (A549 NSCLC) was > 30000 nM, the GI50 (HT29 colon) was 354 nM and the TGI (HT29 colon) was > 13500 nM. It also gave a GI50 (A498 renal) of 745 nM, a TGI (A498 renal) of 3730 nM and a GI50 (LOX IMVI melanoma) of 168 nM. The TGI (LOX IMVI melanoma) was > 9230 nM, the GI50 (HCT-116 colon) was 153 nM and the TGI (HCT-116 colon) was > 11000 nM. The GI50 (BT-549 breast) was 841 nM, the TGI (BT-549 breast) was > 21300 nM and the GI50 (OVCAR-3 ovarian) was 191 nM. The TGI (OVCAR-3 ovarian) was > 7020 nM, the GI50 (NCI-H226 lung) was 548 nM and the TGI (NCI-H226 lung) was 10300 nM. For the same molecule, the GI50 (DU-145 prostate) was 348 nM, the TGI (DU-145 prostate) was > 23600 nM and the GI50 (CAKI-1 renal) was 295 nM. For the same molecule, the TGI (CAKI-1 renal) was > 30000 nM, the GI50 (SF-539 CNS) was 435 nM and the TGI (SF-539 CNS) was > 9300 nM. The GI50 (NCI-H23 lung) was 437 nM, the TGI (NCI-H23 lung) was > 30000 nM and the GI50 (NCI-H522 lung) was 429 nM. For the same molecule, the TGI (NCI-H522 lung) was > 6940 nM and the GI50 (SR leukemia) was 71.1 nM.
